One test deals with measles virus (MV). The note with it: cited from earlier work.
In test [1] the test system is normal and cancer cell lines of different histopathological origin. Briefly: Calcein AM cytotoxicity assay, summary statements over the cell line panel. It is filed as cell-based. Particulars: versus 28-homobrassinolide 2. On the procedure:
Stock solutions ([…]) were prepared by dissolving relevant quantity of substance in DMSO cultivation media (DMEM, RPMI 1640, F-12 medium), fetal bovine serum (FBS), L-glutamine, penicillin, and streptomycin were purchased from Sigma (MO, USA). 3-(4,5-Dimethylthiazol-2-yl)-2,5-diphenyltetrazolium bromide (MTT) was from Serva Electrophoresis (Heidelberg, Germany). Monoclonal mouse anti-bromodeoxyuridine (BrdU) intibody was obtained from DakoCytomation (Glostrup, Denmark). Calcein AM was obtained from PAA Laboratories GmbH (Pasching, Austria). The screening cell lines (T-lymphoblastic leukaemia cell line CEM; breast carcinoma cell line MCF-7 (estrogen-sensitive), breast adenocarcinoma cell line MDA-MB 468 (cell lines LNCaP (androgen-sensitive), prostate carcinoma cell line DU-145 ([…]), lung carcinoma cell line A-549, chronic myelogenous leukemia cell line K562, multiple myeloma cell line RPMI 8226, cervical carcinoma cell line HeLa, malignant human melanoma cell line G361, osteosarcoma cell line HOS, and normal human fibroblasts (BJ) were obtained from the American Type Culture Collection (Manassas, Va., USA). MCF-7 cells were cultured in F-12 medium (Sigma, MO, USA). LNCaP cells were cultured in RPMI 1640 medium (GIBCO, USA). All other cells were cultured in DMEM medium (Sigma, MO, USA). All used media were supplemented with 10% heat-inactivated fetal bovine serum, 2 mmol/L L-glutamine, 1% penicillin/streptomycin. The cell lines were maintained under standard cell culture conditions at 37° C. and 5% CO2 in a humid environment. Cells were subcultured twice or three times a week using the standard trypsinization procedure (Sigma, USA).
The cell suspension of approximate density of 1.25×10^5 cells/mL was redistributed into 96-well microtitre plates and after 12 h of stabilization the tested Brassinosteroids (BRs) were added in different concentrations. BRs were dissolved in DMSO. Control cultures were treated with DMSO alone. The final concentration of DMSO in the reaction mixture never exceeded 1%. Tested compounds in given concentrations were added at time zero in 20 μL aliquots to the microtiter plate wells. Usually, each test compound was evaluated at six 4-fold dilutions. In routine testing, the highest well concentration was 50 μmol, but it can be the matter of change dependent on the agent. Cultivation proceeds 96 h at 37° C., the cells were incubated with Calcein AM solution (Molecular Probes) for 1 h. Fluorescence (OD) of viable cells was quantified with Fluoroscan Ascent (Microsystems). The cell survival (IC50) was calculated using the following equation: IC50=(ODdrug exposed well/mean ODcontrol wells)×100%. Each compound was tested in triplicates and the test was repeated at least 3 times. The IC50 value, corresponding to drug concentration lethal to 50% of the tumor cells, was calculated from the obtained dose response curves.
We investigated effects of brassinosteroid on viability of normal and cancer cell lines of different histopathological origin. To evaluate the cytotoxic properties of several BRs and some related steroids, we used T-lymphoblastic leukaemia cell line CEM, breast carcinoma cell line MCF-7, lung carcinoma cell line A-549, chronic myeloid leukaemia cell line K562, multiple myeloma cell line RPMI 8226, cervical carcinoma cell line HeLa, malignant melanoma cell line G361, osteosarcoma cell line HOS, and normal human fibroblasts BJ. The cells were exposed to six 4-fold dilutions of each drug for 72 h to determinate number of surviving cells.

Test [2] deals with herpes simplex virus type 1 (HSV-1). The note with it: cited from earlier work.
The test system of the next test is MDA-MB-468 cells. Kind of test: BrdU incorporation assay, MDA-MB-468. It is filed as cell-based. On the procedure: (§1) To analyze if the inhibition in cell viability was due to decreased cell proliferation, we measured DNA synthesis in the presence of BRs. The effect of brassinosteroids 9 or 6 on cell proliferation and DNA replication of the cancer cells was measured by BrdU incorporation assay. This immunostaining was based on nuclear incorporation of bromodeoxyuridine (BrdU) into DNA in place of thymidine during the S-phase of cell cycle detected by anti-specific-BrdU antibody following membrane permeabilization as described previously (Gratzner, Science. 1982, 218, 474-475). […] The BrdU reagent (0.1 mM; Sigma, MO, USA) was added in culture medium with cells for 4 h in a CO2 incubator at 37° C. After incubation the cells were washed three times with PBS and fixed with cold acetone-methanol (1:1, v/v) for 10 min. The cells were denaturated by HCl (1:5; Lachema, Czech Republic) and incubated with anti-specific-BrdU antibody (diluted 1:100 in PBS; clone Bu20a, DakoCytomation, Denmark) for 60 min in the dark. The cells were then washed three times in PBS (10 mM, pH 7.4) and incubated with goat anti-mouse fluorescein isothiocyanate (FITC)-labeled secondary antibody (Sigma, MO, USA) for 60 min in the dark. The cells were then washed three times in PBS and incubated with DAPI (50 μg/mL; Sigma, MO, USA) for 10 min in the dark. The coverslips with cells were washed in deionized water and mounted on glass slides, using the hydrophilic medium Mowiol (Calbiochem, Calif., USA) in glycerol-PBS (1:3, v/v) for fluorescence. Cells were visualized using microscopy and those incorporating BrdU (S phase cells) were counted in at least 25 fields and compared with the total number of all cells.
On the technique in general: Uptake of a labelled nucleoside into DNA is a usual measure of proliferation.

In another test the test system is arena viruses. Particulars: cited from earlier work.
Another test deals with MCF-7 cells. Kind of test: BrdU incorporation assay, MCF-7. The test is classed as cell-based. As for the experimental part:
as §1

Test [3] deals with cultured mouse hybridoma cells. Particulars: cited from earlier work; for density of viable cells / growth: mouse hybridoma cells, concentrations of 10^−13 mol/L and 10^−12 mol/L.
[4] abbreviates: treated at IC50 for 6 h, control 64 ± 1.5.
[5] abbreviates: treated at IC50 for 12 h, control 58 ± 3.0.
[6] abbreviates: treated at IC50 for 24 h, control 64 ± 5.6.
The mark [7] stands for this setting: treated at IC50 for 6 h, control 50 ± 3.6.
The mark [8] stands for this setting: treated at IC50 for 12 h, control 53 ± 3.5.
[9] abbreviates: treated at IC50 for 24 h, control 69 ± 4.5.

Read-outs that look alike come from different tables or passages of the source.

As for `CC[C@@H](C(C)C)[C@@H](O)[C@H](O)[C@@H](C)[C@H]1CC[C@H]2[C@@H]3CC(=O)[C@H]4C[C@H](O)[C@H](O)C[C@]4(C)[C@H]3CC[C@]12C` [Brassinosteroid 9, 28-Homocastasterone], the “in vitro antiviral activity” value (in the test with measles virus (MV); in test [2]; with arena viruses) was “in vitro antiviral activity” throughout. For the same compound, the “strength of growth inhibitory response relative to 28-homobrassinolide 2” value in test [1] is given as “about 3 times”. For the same compound, the “percentage of proliferating BrdU positive cells” value turned out to be 55 ± 5.0% in the test on MDA-MB-468 cells (setting [4]); 48 ± 4.6% in the test on MDA-MB-468 cells (setting [5]); 28 ± 4.6 % in the test on MDA-MB-468 cells (setting [6]); 46 ± 2.5% in the test with MCF-7 cells (setting [7]); 31 ± 3.8 % in the test on MCF-7 cells (setting [8]); 29±4.0% with MCF-7 cells (setting [9]).
On to `CC(C)[C@@H](C)[C@@H](O)[C@H](O)[C@@H](C)[C@H]1CC[C@H]2[C@@H]3COC(=O)[C@H]4C[C@H](O)[C@H](O)C[C@]4(C)[C@H]3CC[C@]12C` [Brassinosteroid 6, 24-Epibrassinolide], for which the S-phase cells result in test [3] (cultured mouse hybridoma cells) is “decrease of S-phase cells”. Moreover, the “fraction of the cells in G0/G1 phase” value in test [3] (cultured mouse hybridoma cells) is reported as “increase in the fraction of the cells in G0/G1 phase”. Moreover, in test [3] (cultured mouse hybridoma cells), the intracellular antibody level entry is on record as “decrease of intracellular antibody level”. For the same compound, in test [3] (cultured mouse hybridoma cells), the “value of mitochondrial membrane potential” value is recorded as “increase in the value of mitochondrial membrane potential”. In addition, the “density of viable cells / growth” value in test [3] (listed as 6) is given as “significant positive effect”; in test [3] (listed as 24-epibrassinolide), “significantly higher”. Moreover, the “percentage of proliferating BrdU positive cells” value in the test on MDA-MB-468 cells (setting [4]) was determined as 53 ± 4.4 %; in the test with MDA-MB-468 cells (setting [5]), 55 ± 3.5%; in the test with MDA-MB-468 cells (setting [6]), 43 ± 3.6 %; in the test with MCF-7 cells (setting [7]), 42 ± 3.2%; with MCF-7 cells (setting [8]) it was 40 ± 7.1%; in the test with MCF-7 cells (setting [9]), 36 ± 5.5 %.

The values are drawn from patent US20100204460A1, “NATURAL BRASSINOSTEROIDS FOR USE FOR TREATING HYPERPROLIFERATION, TREATING PROLIFERATIVE DISEASES AND REDUCING ADVERSE EFFECTS OF STEROID DYSFUNCTION IN MAMMALS, PHARMACEUTICAL COMPOSITION AND ITS USE” (priority 2007, published 2010).
